# Test results reported in PMC7177849, “Gut Microbial Catabolites of Tryptophan Are Ligands and Agonists of the Aryl Hydrocarbon Receptor: A Detailed Characterization” (International Journal of Molecular Sciences, 2020).
# Several values for one entry are separate records, joined by “and”; a condition that tells them apart may be missing. Identical values can stand only once. Like-named read-outs stand apart in the source and are kept apart here.
# Key:
# AhR [1] = target: T1, AhR (Homo sapiens, UniProt P35869); test: Immunofluorescence detection of nuclear translocation of the AhR in LS180 cells; type: cell-based; parameters: 0.1% V/V), TCDD (10 nM), and test MICT; host or cells: LS180 cells
# T1 sequence (P35869 11-848): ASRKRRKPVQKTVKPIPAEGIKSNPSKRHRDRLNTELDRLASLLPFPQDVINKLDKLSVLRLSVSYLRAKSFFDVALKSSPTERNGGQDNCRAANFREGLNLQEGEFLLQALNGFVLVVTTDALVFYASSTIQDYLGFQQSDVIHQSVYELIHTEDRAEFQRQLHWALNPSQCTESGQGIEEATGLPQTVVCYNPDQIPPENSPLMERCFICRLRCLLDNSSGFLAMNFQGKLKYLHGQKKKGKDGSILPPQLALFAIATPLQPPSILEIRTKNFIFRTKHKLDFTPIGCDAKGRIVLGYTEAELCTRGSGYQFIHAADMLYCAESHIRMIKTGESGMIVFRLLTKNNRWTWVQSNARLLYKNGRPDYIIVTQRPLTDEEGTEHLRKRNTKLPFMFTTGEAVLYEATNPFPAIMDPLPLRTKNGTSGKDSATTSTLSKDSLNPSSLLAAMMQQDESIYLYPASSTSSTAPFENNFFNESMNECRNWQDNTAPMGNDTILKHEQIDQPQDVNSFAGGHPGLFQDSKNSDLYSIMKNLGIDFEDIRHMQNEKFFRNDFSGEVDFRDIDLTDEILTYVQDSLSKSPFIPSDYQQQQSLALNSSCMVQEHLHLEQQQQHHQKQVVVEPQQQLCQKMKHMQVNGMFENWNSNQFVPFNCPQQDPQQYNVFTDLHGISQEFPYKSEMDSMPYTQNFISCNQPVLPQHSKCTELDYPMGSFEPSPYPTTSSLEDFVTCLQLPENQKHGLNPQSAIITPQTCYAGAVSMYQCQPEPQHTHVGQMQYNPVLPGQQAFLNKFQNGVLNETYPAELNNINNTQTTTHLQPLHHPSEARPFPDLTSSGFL
# Description: Figure 5 Effect of MICT on nuclear translocation of the AhR. LS180 cells were incubated for 90 min with vehicle (DMSO; 0.1% V/V), TCDD (10 nM), and test MICT. The experiments were performed in three consecutive cell passages with all tested compounds in duplication. Fluorescence images depict sub-cellular localization of AhR (upper panels) and nuclear staining by DAPI (lower panels). Representative micrographs are shown.
# LS180 cells (60,000 cells/well) were plated on 8-well chambered slides (94.6140.802, Sarstedt, Nümbrecht, Germany) and allowed to grow overnight. Then, the cells were incubated with DMSO (0.1% V/V), TCDD (10 nM), IND (1000 µM), IPY (200 µM), 3MI (200 µM), TA (200 µM), IAC (100 µM), and IAD (200 µM). The staining procedure was described in detail elsewhere. The images were captured using an IX73 fluorescence microscope (Olympus, Tokyo, Japan). The immunofluorescence signal intensity (of the AhR antibody) in the nucleus was evaluated visually. For percentage calculation, approximately 500 cells from at least four randomly selected fields of view in each specimen were used.
# Suppl. Table 1. Nuclear translocation of AhR – quantification of immunofluorescence.
# LS180 cells were incubated for 90 min with MICT , vehicle or TCDD. Intracellular AhR was visualized with Alexa Fluor 488 labelled primary antibody. The whole staining protocol was performed in three independent experiments in technical duplicates. The AhR translocation was evaluated visually depending on the distinct signal intensity of AhR antibody in the nucleus and cytosol. For percentage calculation, approximately one hundred cells from at least four randomly selected fields of view in each
# AhR [2] = system: AhR; parameters: method as in PMID 23973224; details: mouse H1L1.1c2 reporter cells; cited from earlier work
# CYP1A1 mRNA = system: CYP1A1 mRNA; parameters: method as in PMID 24563545; details: cited from earlier work
# AhR [3] = system: AhR; parameters: method as in PMID 26235394; details: 100 µM IND, HepG2 cells, 4 h; cited from earlier work
# CYP1A1 promoter = test: Chromatin immunoprecipitation (ChIP), binding of the AhR to CYP1A1 promoter in LS180 cells; type: cell-based, human; details: 90 min
# Description: Figure 7 MICT elicit the binding of the AhR to CYP1A1 promoter, as determined by the chromatin immunoprecipitation assay (ChIP). LS180 cells were incubated with vehicle, TCDD, and tested compounds, as described in Materials and Methods, and were then subjected to ChIP analysis. Bar graphs show binding of the AhR to CYP1A1 promoter as quantified by RT-PCR. The entire protocol was carried out in three consecutive cell passages. The data are expressed as a fold enrichment to vehicle-treated cells and show the mean ± SD from duplicates (technical replicates). DNA fragments amplified by PCR were resolved on 2% agarose gel (representative record from “exp 2” is shown).
# LS180 cells (4 million) were seeded in a 60-mm dish in Dulbecco’s modified Eagle’s medium (D6546; Sigma Aldrich). The following day, the cells were incubated with DMSO (0.1% V/V), TCDD (10 nM), IND (1000 µM), IPY (200 µM), 3MI (200 µM), TA (200 µM), IAC (100 µM), and IAD (200 µM) for 90 min at 37 °C. ChIP assay was performed as we described in detail elsewhere.
# [4] = LS180, 90 min, exp 1, TCDD 10 nM, Indole 1 mM, IAC 100 µM, others 200 µM
# [5] = LS180, 90 min, exp 2, TCDD 10 nM, Indole 1 mM, IAC 100 µM, others 200 µM
# [6] = LS180, 90 min, exp 3, TCDD 10 nM, Indole 1 mM, IAC 100 µM, others 200 µM
# [7] = mean ± SD, n = 3, relative to TCDD-treated cells, LS180, 90 min
# [8] = relative to TCDD-treated cells, LS180, 90 min, exp 1, same concentrations
# [9] = relative to TCDD-treated cells, LS180, 90 min, exp 2, same concentrations
# [10] = relative to TCDD-treated cells, LS180, 90 min, exp 3, same concentrations
SMILES,% positive AhR nuclei (AhR [1]; [4]) [%],% positive AhR nuclei (AhR [1]; [5]) [%],% positive AhR nuclei (AhR [1]; [6]) [%],Ø AhR positive nuclei (AhR [1]; [7]) [%],% relative AhR nuclei (AhR [1]; [8]) [%],% relative AhR nuclei (AhR [1]; [9]) [%],% relative AhR nuclei (AhR [1]; [10]) [%],agonist activity (AhR [2]),% positive AhR nuclei (AhR [1]),% relative AhR nuclei (AhR [1]),Ø AhR positive nuclei (AhR [1]) [%],"induction of CYP1A1 mRNA (CYP1A1 mRNA; various human cells, 500–1000 µM IND)",activation of AhR (AhR [3]),induction of CYP1A1 mRNA (AhR [3]),"CYP1A1 mRNA induction (CYP1A1 mRNA; 50 µM TA, Caco-2 and cells)",binding of the AhR to the promoter of the CYP1A1 gene (CYP1A1 promoter)
"Cc1c[nH]c2ccccc12 [3MI, skatole]",65,72,62,105 ± 13.8,120,94,102,,,,,,,,,
"O=Cc1c[nH]c2ccccc12 [IA, indole-3-aldehyde]",,,,,,,,vigorous agonist activity,,,,,,,,
"O=C(O)/C=C/c1c[nH]c2ccccc12 [IAC, indole-3-acrylate]",51,61,73,98 ± 20.4,94,79,120,,,,,,,,,
"NC(=O)Cc1c[nH]c2ccccc12 [IAD, indole-3-acetamide]",46,73,42,83 ± 13.1,85,95,69,,,,,,,,,
"c1ccc2[nH]ccc2c1 [IND, indole]",,,,,,,,,61% and 73% and 65%,113% and 95% and 107%,105 ± 9.2,moderate induction,achieved,achieved,,
"O=C(O)C(=O)Cc1c[nH]c2ccccc12 [IPY, indole-3-pyruvate]",42,60,38,73 ± 9.0,78,78,62,,,,,,,,,
"NCCc1c[nH]c2ccccc12 [TA, tryptamine]",44,65,66,91 ± 14.6,81,84,108,,,,,,,,induction,
"Clc1cc2c(cc1Cl)Oc1cc(Cl)c(Cl)cc1O2 [TCDD, 2,3,7,8-tetrachlorodibenzo-p-dioxin, reference compound]",54,77,61,,,,,,,,,,,,,enhanced
